Source: US20250049660A1, “ENOL ETHER PROPERFUME” (FIRMENICH SA, priority 2021, published 2025)

Assay: Acid-catalyzed hydrolysis of enol ethers in THF/1 M HCl
Assay type: physicochemical
Conditions: THF/1M HCl (80:20 v/v), room temperature; for Hydrolysis of enol ethers, percent remaining, initial: initial (time zero)
Protocol: The acid-catalyzed hydrolysis of Compounds 1, 2, 3 and 25 were measured and compared to the hydrolysis of enol ethers report in WO2019243501. Each enol ether was dissolved in a 4:1 THF/1 M HCl mixture and the percent remaining over time measured relative to an internal standard.
Into a 15 mL vial were added 125 mg of enol ether, 60 mg of hexadecane and 10 mL of THE (purged with N2 and containing 2500 ppm of BHT). After mixing, 2 mL of this solution were removed with a volumetric pipet and used to obtain the time zero measurement. 2 mL of 1 M HCl were mixed with the remaining 8 mL of the THF solution. This mixture was divided into 5 mL vials (1 mL per vial). The vials were gently topped with nitrogen and fitted with screw caps around which parafilm was wrapped. The vials were stored at room temperature until analyzed. For analyses, 2 mL of ethyl acetate was added to a vial and mixed. After phase separation, the top phase was collected and washed with saturated sodium carbonate (1 mL). Samples of the organic phase were analyzed by GC-FID. For the time zero sample, 0.5 mL of deionized water was added to the 2 mL taken from the original THE solution. 1 mL of this solution was added to a 5 mL vial and diluted with 2 mL of ethyl acetate and mixed. The top phase was collected and washed with saturated sodium carbonate (1 mL). The top phase then was analyzed by GC-FID. The percent of enol ether remaining was determined by dividing the peak area ratio of the enol ether to internal standard by the ratio measured at time zero.

Hydrolysis of enol ethers, percent remaining, 5 h [%]	Hydrolysis of enol ethers, percent remaining, 1 d [%]	Hydrolysis of enol ethers, percent remaining, 2 d [%]	Hydrolysis of enol ethers, percent remaining, 3 d [%]	Hydrolysis of enol ethers, percent remaining, 7 d [%]	Hydrolysis of enol ethers, percent remaining, initial [%]	Compound
3.7	–	–	–	–	100	CCCCCCCCCC(C)C=COC(CC)CCCCC (stereo not shown) [Compound 29, 3-methyl-1-(octan-3-yloxy)dodec-1-ene]
–	84.9	72.0	61.7	33.6	100	CCCCCC(CC)OC=Cc1ccccc1 (stereo not shown) [(2-(octan-3-yloxy)vinyl)benzene, reference compound]
29.8	–	–	–	–	100	CC/C=C\CCOC=CC(C)CCCCCCCCC (stereo not shown) [Compound 27, 1-(((Z)-hex-3-en-1-yl)oxy)-3-methyldodec-1-ene]
12.8	0	0	0	0	100	CCCCCCCCCCC=COCCc1ccccc1 [Compound 1, (2-(dodec-1-en-1-yloxy)ethyl)benzene]

More lines, now with the values behind:

Compound	Hydrolysis of enol ethers, percent remaining, 5 h [%]	Hydrolysis of enol ethers, percent remaining, 1 d [%]	Hydrolysis of enol ethers, percent remaining, 2 d [%]	Hydrolysis of enol ethers, percent remaining, 3 d [%]	Hydrolysis of enol ethers, percent remaining, 7 d [%]	Hydrolysis of enol ethers, percent remaining, initial [%]
CCCCCCCCCCCC=COCCc1ccccc1 [Compound 2, (2-(tridec-1-en-1-yloxy)ethyl)benzene]	16.3	0	0	0	0	100
CC/C=C\CCOC=Cc1ccccc1 [(2-(((Z)-hex-3-en-1-yl)oxy)vinyl)benzene, reference compound]	–	–	–	79.5	57.3	100
CC/C=C\CCOC=Cc1ccc(OC)cc1 [1-(2-(((Z)-hex-3-en-1-yl)oxy)vinyl)-4-methoxybenzene, reference compound]	–	89.1	80.2	72.4	52.5	100
C=CCCCCCCCC=COCCc1ccccc1 [Compound 3, (2-(undeca-1,10-dien-1-yloxy)ethyl)benzene]	19.9	0	0	0	0	100
C(=Cc1ccccc1)OCCc1ccccc1 [(2-phenethoxyvinyl)benzene, reference compound]	–	95	90	83.7	66.4	100
CCCCCCCCCC(C)C=COCCc1ccccc1 (stereo not shown) [Compound 25, (2-((3-methyldodec-1-en-1-yl)oxy)ethyl)benzene]	35.6	4.6	0	0	0	100
